Test results as given in US20260234144A1 (TAY THERAPEUTICS LIMITED, priority 2023, published 2026).

Tested on: R223X stop codon in the mutated luciferase gene, ADXC8 luciferase reporter cell line
Experiment: cells
Format: cell-based
Settings: ADXC8 cells, 24 hours; for Emax / EC (100% of 200 uM G418 response): 24 h; for Emax: read-out: Fold Over Control, maximum fold response relative to 200 μM G418; for pC100%: negative logarithm of the concentration giving the same response as 200 μM G418; for Fold Over Control: maximum fold response relative to 200 μM G418; for EC (100% of 200 uM G418 response): read-out: pC100%, negative logarithm of the concentration giving the same response as 200 μM G418
Method: The read-through activity of compounds was assessed using the ADXC8 luciferase reporter cell line (generated as described in McElroy et al. PLoS Biology (2013), 11, e1001593). […] The amount of luciferase is measured by adding a lysis buffer containing luciferin substrate and detecting luminescence using the following protocol:
ADXC8 cells in assay media (DMEM+10% FBS) were seeded into 96-well tissue culture treated white plates (Greiner) to a density of 13,000 cells per well and incubated for 24 hours at 37° C. in an atmosphere of 5% CO2. […] Plates were incubated for a further 24 hours at 37° C. in an atmosphere of 5% CO2. Cells treated with 200 μM G418 (with 1% DMSO) were used as a positive control.
Cell viability and firefly luciferase activity were measured in the same assay wells. CellTiter-Fluor™ reagent was prepared as per manufacturer's instructions (Promega E7120) and 20 μl of 5× CellTiter-Fluor™ reagent was added to all wells, briefly mixed by orbital shaking (300-500 rpm for −30 seconds) and the plates incubated for 30-45 minutes at 37° C. in an atmosphere of 5% C02. Cell viability was measured by monitoring fluorescence on a CLARIOstar® plate reader (BMG Labtech). Cells containing 1% DMSO were used as a positive control and cells with 400 μM Doxorubicin were used as negative control to define 100 and 0% respectively. ONE-Glo™ luciferase assay buffer (Promega E7120) was prepared according to manufacturer's instructions and 100 μl of luciferase reagent was added to each well and the plate incubated at RT for 3 mins before measuring the luminescence on the CLARIOstar® plate reader (BMG Labtech). Cells treated with 200 μM G418 (with 1% DMSO) were used as a positive control and arbitrarily assigned a value of 100%. Cells treated with 1% DMSO were used as the negative control to define 0% response.
Concentration effect curves were analysed using non-linear regression using the CDD Vault from Collaborative Drug Discovery (Burlingame, CA). […] The bottom and top of the curves were constrained to 0 and the maximum measured response respectively. From the fitted curves, the software derived C100% values (the concentration giving the same response as 200 μM G418) for each compound. The negative logarithm of C100% is reported as pC100% (Table 1). In addition to pC100% values, the maximum fold response relative to 200 μM G418 (Fold over Control) was also captured (Table 1). A pC100% categorisation of ‘-’ in Table 1 represents examples in which a pC100% response was not reached when assayed at a concentration of 100 μM. A pC100% categorisation of ‘*’ in Table 1 represents examples in which a pC100% response was not reached when assayed at a concentration of 30 μM.

Cc1cc(C)c2c(N)nc(NC34CNCC3C4)nc2n1 (single isomer, unassigned) [Example 259, N^2-(3-azabicyclo[3.1.0]hexan-1-yl)-5,7-dimethylpyrido[2,3-d]pyrimidine-2,4-diamine]
Emax: 100 to 3000%
pC100%: ++ (pC100% > 5.0 ≤ 6.0)

Cc1cc(C)c2c(N)nc(NC34CNCC3C4)nc2n1 (single isomer, unassigned) [Example 260, N^2-(3-azabicyclo[3.1.0]hexan-1-yl)-5,7-dimethylpyrido[2,3-d]pyrimidine-2,4-diamine]
Fold Over Control: ## (Fold over Ctrl > 1 ≤ 30)
pC100%: +++ (pC100% > 6.0 ≤ 7.0)

CNc1nc(NC2CNCC2C(F)F)nc2nc(C)cc(C)c12 (single isomer, unassigned) [Example 429]
pC100%: +++ (pC100% > 6.0 ≤ 7.0)

CNc1nc(NC2CNCC2C(F)F)nc2nc(C)cc(C)c12 (single isomer, unassigned) [Example 430]
pC100%: ++ (pC100% > 5.0 ≤ 6.0)

CNc1nc(NC2CC3CC2CN3C)nc2nc(C)cc(C)c12 (single isomer, unassigned) [Example 431]
Emax: 100 to 3000%
pC100%: + (pC100% > 4.0 ≤ 5.0)

CNc1nc(NC2CC3CC2CN3C)nc2nc(C)cc(C)c12 (single isomer, unassigned) [Example 432]
Fold Over Control: ## (Fold over Ctrl > 1 ≤ 30)
pC100%: ++ (pC100% > 5.0 ≤ 6.0)

CNc1nc(NC2C3CCC2CN(C)C3)nc2nc(C)cc(C)c12 (single isomer, unassigned) [Example 433]
Emax: 100 to 3000%
EC (100% of 200 uM G418 response): 1 to 10 µM

CNc1nc(NC2C3CCC2CN(C(C)C)C3)nc2nc(C)cc(C)c12 (single isomer, unassigned) [Example 435]
Emax: 100 to 3000%
pC100%: ++ (pC100% > 5.0 ≤ 6.0)

CNc1nc(NC2C3CCC2CN(C(C)C)C3)nc2nc(C)cc(C)c12 (single isomer, unassigned) [Example 436]
Fold Over Control: ## (Fold over Ctrl > 1 ≤ 30)
pC100%: + (pC100% > 4.0 ≤ 5.0)

CNc1nc(NC2CNCC2(F)F)nc2nc(C)cc(C)c12 (single isomer, unassigned) [Example 437]
Fold Over Control: ## (Fold over Ctrl > 1 ≤ 30)
pC100%: + (pC100% > 4.0 ≤ 5.0)

CNc1nc(NC2CNCC2(F)F)nc2nc(C)cc(C)c12 (single isomer, unassigned) [Example 438]
Fold Over Control: # (Fold over Ctrl ≥ 0 ≤ 1)
pC100%: * (pC100 ≤ 4.5)

CNc1nc(NC2(CO)CCNC2)nc2nc(C)cc(C)c12 (single isomer, unassigned) [Example 440]
Fold Over Control: # (Fold over Ctrl ≥ 0 ≤ 1)
pC100%: * (pC100 ≤ 4.5)

CNc1nc(NC2(CO)CCNC2)nc2nc(C)cc(C)c12 (single isomer, unassigned) [Example 441]
Fold Over Control: ## (Fold over Ctrl > 1 ≤ 30)
pC100%: ++ (pC100% > 5.0 ≤ 6.0)

CNc1nc(NC2CCN3CCCC3C2)nc2nc(C)cc(C)c12 (single isomer, unassigned) [Example 442]
EC (100% of 200 uM G418 response): 1 to 10 µM

CNc1nc(NC2CCN3CCCC3C2)nc2nc(C)cc(C)c12 (single isomer, unassigned) [Example 443]
Emax: 100 to 3000%
pC100%: ++ (pC100% > 5.0 ≤ 6.0)

CNc1nc(NC2C3CNC2C3)nc2nc(C)cc(C)c12 (single isomer, unassigned) [Example 445]
Fold Over Control: ## (Fold over Ctrl > 1 ≤ 30)
pC100%: ++ (pC100% > 5.0 ≤ 6.0)

CNc1nc(NC2C3CNC2C3)nc2nc(C)cc(C)c12 (single isomer, unassigned) [Example 446]
pC100%: ++ (pC100% > 5.0 ≤ 6.0)

CNc1nc(NC2C3CNC2C3)nc2nc(C)cc(C)c12 (single isomer, unassigned) [Example 447]
Fold Over Control: ## (Fold over Ctrl > 1 ≤ 30)
pC100%: ++ (pC100% > 5.0 ≤ 6.0)

CNc1nc(NC2C3CNC2C3)nc2nc(C)cc(C)c12 (single isomer, unassigned) [Example 448]
Fold Over Control: # (Fold over Ctrl ≥ 0 ≤ 1)
pC100%: * (pC100 ≤ 4.5)

CNc1nc(NC2CNCC2C#N)nc2nc(C)cc(C)c12 (single isomer, unassigned) [Example 450]
Fold Over Control: ## (Fold over Ctrl > 1 ≤ 30)
pC100%: ++ (pC100% > 5.0 ≤ 6.0)

CNc1nc(NC2CNCC2C#N)nc2nc(C)cc(C)c12 (single isomer, unassigned) [Example 451]
Fold Over Control: # (Fold over Ctrl ≥ 0 ≤ 1)
pC100%: * (pC100 ≤ 4.5)

CNc1nc(NC2CNCC2C#N)nc2nc(C)cc(C)c12 (single isomer, unassigned) [Example 452]
Fold Over Control: ## (Fold over Ctrl > 1 ≤ 30)
pC100%: + (pC100% > 4.0 ≤ 5.0)

CNc1nc(NC2CNCC2C#N)nc2nc(C)cc(C)c12 (single isomer, unassigned) [Example 453]
Fold Over Control: ## (Fold over Ctrl > 1 ≤ 30)
pC100%: + (pC100% > 4.0 ≤ 5.0)

Cc1cc(C)c2c(N)nc(NC3CCN(C(C)c4ccccc4)CC3)nc2n1 (single isomer, unassigned) [Example 502]
Emax: 100 to 3000%
EC (100% of 200 uM G418 response): 0.1 to 1 µM

CN1CCC(Nc2nc(N)c3cccnc3n2)CC1 [Example 1, N^2-(1-methylpiperidin-4-yl)pyrido[2,3-d]pyrimidine-2,4-diamine]
Emax: 100 to 3000%
EC (100% of 200 uM G418 response): 10 to 100 µM

Cc1ccnc2nc(NC3CCN(C)CC3)nc(N)c12 [Example 2, 5-methyl-N^2-(1-methylpiperidin-4-yl)pyrido[2,3-d]pyrimidine-2,4-diamine]
Emax: 100 to 3000%
EC (100% of 200 uM G418 response): 10 to 100 µM

Cc1ccc2c(N)nc(NC3CCN(C)CC3)nc2n1 [Example 3, 7-methyl-N^2-(1-methylpiperidin-4-yl)pyrido[2,3-d]pyrimidine-2,4-diamine]
EC (100% of 200 uM G418 response): 1 to 10 µM

Cc1cnc2nc(NC3CCN(C)CC3)nc(N)c2c1 [Example 4, 6-methyl-N^2-(1-methylpiperidin-4-yl)pyrido[2,3-d]pyrimidine-2,4-diamine]
Emax: 100 to 3000%
EC (100% of 200 uM G418 response): 10 to 100 µM

Cc1cc(C)c2c(N)nc(NCCCN3CCOCC3)nc2n1 [Example 6, 5,7-dimethyl-N^2-(3-morpholinopropyl)pyrido[2,3-d]pyrimidine-2,4-diamine]
Emax: 100 to 3000%
EC (100% of 200 uM G418 response): 10 to 100 µM

Cc1cc(C)c2c(N)nc(NCCCN3CCCCC3)nc2n1 [Example 7, 5,7-dimethyl-N^2-(3-(piperidin-1-yl)propyl)pyrido[2,3-d]pyrimidine-2,4-diamine]
Emax: 100 to 3000%
EC (100% of 200 uM G418 response): 1 to 10 µM

Cc1cc(C)c2c(N)nc(NCCCN3CCS(=O)(=O)CC3)nc2n1 [Example 8, 4-(3-((4-amino-5,7-dimethylpyrido[2,3-d]pyrimidin-2-yl)amino)propyl)thiomorpholine 1,1-dioxide]
Emax: 0 to 100%
EC (100% of 200 uM G418 response): > 100 µM

Cc1nc2nc(NC3CCN(C)CC3)nc(N)c2c2ccccc12 [Example 9, 6-methyl-N^3-(1-methylpiperidin-4-yl)pyrimido[4,5-c]isoquinoline-1,3-diamine]
Emax: 100 to 3000%
EC (100% of 200 uM G418 response): 1 to 10 µM

Cc1c2ccccc2nc2nc(NC3CCN(C)CC3)nc(N)c12 [Example 10, 5-methyl-N^2-(1-methylpiperidin-4-yl)pyrimido[4,5-b]quinoline-2,4-diamine]
Emax: 100 to 3000%
EC (100% of 200 uM G418 response): 1 to 10 µM

Cc1nc2nc(NC3CCN(C)CC3)nc(N)c2c2c1CCC2 [Example 11, 6-methyl-N^3-(1-methylpiperidin-4-yl)-8,9-dihydro-7H-cyclopenta[4,5]pyrido[2,3-d]pyrimidine-1,3-diamine]
Emax: 100 to 3000%
EC (100% of 200 uM G418 response): 0.1 to 1 µM

Cc1cc(-c2ccccc2)c2c(N)nc(NC3CCN(C)CC3)nc2n1 [Example 13, 7-methyl-N^2-(1-methylpiperidin-4-yl)-5-phenylpyrido[2,3-d]pyrimidine-2,4-diamine]
Emax: 0 to 100%
EC (100% of 200 uM G418 response): > 31.6 µM

Cc1cc(C)c2c(N)nc(N[C@@H]3CCN(C)C3)nc2n1 [Example 14, (R)-5,7-dimethyl-N^2-(1-methylpyrrolidin-3-yl)pyrido[2,3-d]pyrimidine-2,4-diamine]
Emax: 100 to 3000%
EC (100% of 200 uM G418 response): 1 to 10 µM
